Test results published in patent US11135234B2, “Effective aminoglycoside antibiotic for multidrug-resistant bacteria” (MICROBIAL CHEMISTRY RESEARCH FOUNDATION, priority 2015, dated 2021).
In brackets after ≈: the same amount, converted by molar mass.

Key:
[1] = test system: K. pneumoniae ATCC BAA-1705; test: MIC, agar plate dilution method, K. pneumoniae ATCC BAA-1705; assay type: cell-based, Klebsiella pneumoniae; conditions: for MIC: Klebsiella pneumoniae, ATCCBAA1705, K. pneumoniae ATCC BAA-1705, KPC-producing strain, read-out: minimal inhibitory concentration (MIC); for minimal inhibitory concentration (MIC): K. pneumoniae ATCC BAA-1705, KPC-producing strain
How it was run: (§1)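 MIC values, expressed in μg/mL, come from an agar plate dilution assay run as the Japan Society of Chemotherapy describes.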

[2] = test system: S. aureus MF490; test: MIC, agar plate dilution method, S. aureus MF490; assay type: cell-based, Staphylococcus aureus; conditions: for MIC: Staphylococcus aureus, MRSA, read-out: minimal inhibitory concentration (MIC); for minimal inhibitory concentration (MIC): S. aureus MF490, MRSA
How it was run: as §1

[3] = test system: A. baumannii ATCC BAA-1710; test: MIC, agar plate dilution method, A. baumannii ATCC BAA-1710; assay type: cell-based, Acinetobacter baumannii; conditions: for MIC: Acinetobacter baumannii, ATCCBAA1710, A. baumannii ATCC BAA-1710, MDRA, read-out: minimal inhibitory concentration (MIC); for minimal inhibitory concentration (MIC): A. baumannii ATCC BAA-1710, MDRA
How it was run: as §1

[4] = test system: P. aeruginosa PAO1/GN315; test: MIC, agar plate dilution method, P. aeruginosa PAO1/GN315; assay type: cell-based, Pseudomonas aeruginosa; conditions: for MIC: Pseudomonas aeruginosa, read-out: minimal inhibitory concentration (MIC), P. aeruginosa PAO1/GN315, AMK-resistant; for minimal inhibitory concentration (MIC): P. aeruginosa PAO1/GN315, AMK-resistant
How it was run: as §1

[5] = test system: P. aeruginosa PAO1; test: MIC, agar plate dilution method, P. aeruginosa PAO1; assay type: cell-based, Pseudomonas aeruginosa; conditions: for MIC: Pseudomonas aeruginosa, PAO1, P. aeruginosa PAO1, Sensitive bacterium, read-out: minimal inhibitory concentration (MIC); for minimal inhibitory concentration (MIC): P. aeruginosa PAO1, Sensitive bacterium
How it was run: as §1

[6] = test system: S. aureus RN4220; test: MIC, agar plate dilution method, S. aureus RN4220; assay type: cell-based, Staphylococcus aureus; conditions: for MIC: Staphylococcus aureus, RN4220, S. aureus RN4220, Sensitive bacterium, read-out: minimal inhibitory concentration (MIC); for minimal inhibitory concentration (MIC): S. aureus RN4220, Sensitive bacterium
How it was run: as §1

[7] = test system: E. coli JM109/pMW218; test: MIC, agar plate dilution method, E. coli JM109/pMW218; assay type: cell-based, Escherichia coli; conditions: for MIC: Escherichia coli, JM109/PMW218, E. coli JM109/pMW218, Sensitive bacterium, read-out: minimal inhibitory concentration (MIC); for minimal inhibitory concentration (MIC): E. coli JM109/pMW218, Sensitive bacterium
How it was run: as §1

[8] = test system: P. aeruginosa MSC01035; test: MIC, agar plate dilution method, P. aeruginosa MSC01035; assay type: cell-based, Pseudomonas aeruginosa; conditions: P. aeruginosa MSC01035, ABK-resistant; for MIC: Pseudomonas aeruginosa, read-out: minimal inhibitory concentration (MIC)
How it was run: as §1

[9] = test system: E. faecium ATCC19434; test: MIC, agar plate dilution method, E. faecium ATCC19434; assay type: cell-based, Enterococcus faecium; conditions: for MIC: Enterococcus faecium, ATCC19434, E. faecium ATCC19434, read-out: minimal inhibitory concentration (MIC); for minimal inhibitory concentration (MIC): E. faecium ATCC19434
How it was run: as §1

[10] = test system: K. pneumoniae ATCC BAA-2146; test: MIC, agar plate dilution method, K. pneumoniae ATCC BAA-2146; assay type: cell-based, Klebsiella pneumoniae; conditions: for MIC: Klebsiella pneumoniae, ATCCBAA2146, K. pneumoniae ATCC BAA-2146, NDM-producing strain, read-out: minimal inhibitory concentration (MIC); for minimal inhibitory concentration (MIC): K. pneumoniae ATCC BAA-2146, NDM-producing strain
How it was run: as §1

[11] = test system: S. marcescens TH-0447; test: MIC, agar plate dilution method, S. marcescens TH-0447; assay type: cell-based, Serratia marcescens; conditions: for MIC: Serratia marcescens, TH0447, S. marcescens TH-0447, AMK-resistant, read-out: minimal inhibitory concentration (MIC); for minimal inhibitory concentration (MIC): S. marcescens TH-0447, AMK-resistant
How it was run: as §1

[12] = test system: S. aureus RN4220/pMS520; test: MIC, agar plate dilution method, S. aureus RN4220/pMS520; assay type: cell-based, Staphylococcus aureus; conditions: for MIC: Staphylococcus aureus, MRSA, read-out: minimal inhibitory concentration (MIC), S. aureus RN4220/pMS520, MRSA; for minimal inhibitory concentration (MIC): S. aureus RN4220/pMS520, MRSA
How it was run: as §1

[13] = test system: S. marcescens GN6944; test: MIC, agar plate dilution method, S. marcescens GN6944; assay type: cell-based, Serratia marcescens; conditions: S. marcescens GN6944, GM-resistant; for MIC: Serratia marcescens, read-out: minimal inhibitory concentration (MIC)
How it was run: as §1

[14] = test system: P. aeruginosa MSC17707; test: MIC, agar plate dilution method, P. aeruginosa MSC17707; assay type: cell-based, Pseudomonas aeruginosa; conditions: for MIC: Pseudomonas aeruginosa, MSC17707, P. aeruginosa MSC17707, AMK-resistant, read-out: minimal inhibitory concentration (MIC); for minimal inhibitory concentration (MIC): P. aeruginosa MSC17707, AMK-resistant
How it was run: as §1

SMILES | MIC [1] | MIC [2] | MIC [3] | MIC [4] | MIC [5] | MIC [6] | MIC [7] | MIC [8] | MIC [9] | MIC [10] | MIC [11] | MIC [12] | MIC [13] | MIC [14] | minimal inhibitory concentration (MIC) [1] | minimal inhibitory concentration (MIC) [2] | minimal inhibitory concentration (MIC) [3] | minimal inhibitory concentration (MIC) [4] | minimal inhibitory concentration (MIC) [5] | minimal inhibitory concentration (MIC) [6] | further results
CNC1C(O[C@H]2OC(CO)[C@@H](NC(=N)N)[C@H](O)C2O)O[C@H]2CC(N)[C@@H](O[C@H]3CC(O)[C@H](N)CC3N)OC2C1O (stereo partly shown) [Compound S1-e, 4″-deamino-5-deoxy-4″-guanidinoapramycin] | 2 µg/mL (≈ 3.54 µM) | 4 µg/mL (≈ 7.07 µM) | 4 µg/mL (≈ 7.07 µM) | 4 µg/mL (≈ 7.07 µM) | 4 µg/mL (≈ 7.07 µM) | 1 µg/mL (≈ 1.77 µM) | 0.5 µg/mL (≈ 0.884 µM) | 8 µg/mL (≈ 14.1 µM) | 4 µg/mL (≈ 7.07 µM) | 0.5 µg/mL (≈ 0.884 µM) | 4 µg/mL (≈ 7.07 µM) | 1 µg/mL (≈ 1.77 µM) | 4 µg/mL (≈ 7.07 µM) | 8 µg/mL (≈ 14.1 µM) |  |  |  |  |  |  | 
CNCC(=O)N[C@@H]1C(CO)O[C@H](OC2O[C@H]3CC(N)[C@@H](O[C@@H]4C(N)C[C@@H](N)C(O)[C@H]4O)OC3C(O)C2NC)C(O)[C@H]1O (stereo partly drawn) [Compound V1-j, 5-epi-4″-N-sarcosylapramycin] |  |  |  |  |  |  |  |  |  |  |  |  |  |  | 1 µg/mL (≈ 1.64 µM) | 4 µg/mL (≈ 6.55 µM) | 8 µg/mL (≈ 13.1 µM) | 4 µg/mL (≈ 6.55 µM) | 2 µg/mL (≈ 3.28 µM) | 2 µg/mL (≈ 3.28 µM) | minimal inhibitory concentration (MIC) [7]: 1 µg/mL (≈ 1.64 µM); minimal inhibitory concentration (MIC) [8]: 4 µg/mL (≈ 6.55 µM); minimal inhibitory concentration (MIC) [9]: 8 µg/mL (≈ 13.1 µM); minimal inhibitory concentration (MIC) [10]: 1 µg/mL (≈ 1.64 µM); minimal inhibitory concentration (MIC) [11]: 8 µg/mL (≈ 13.1 µM); minimal inhibitory concentration (MIC) [12]: 2 µg/mL (≈ 3.28 µM); minimal inhibitory concentration (MIC) [13]: 8 µg/mL (≈ 13.1 µM); minimal inhibitory concentration (MIC) [14]: 2 µg/mL (≈ 3.28 µM)
CNC1C(O[C@H]2OC(CO)[C@@H](NCCN)[C@H](O)C2O)O[C@H]2CC(N)[C@@H](O[C@H]3CC[C@H](N)CC3N)OC2C1O (stereo partly shown) [Compound T2-b, 4″-N-(2-aminoethyl)-5,6-dideoxyapramycin] | 2 µg/mL (≈ 3.63 µM) | 8 µg/mL (≈ 14.5 µM) | 8 µg/mL (≈ 14.5 µM) | 8 µg/mL (≈ 14.5 µM) | 8 µg/mL (≈ 14.5 µM) | 4 µg/mL (≈ 7.26 µM) | 1 µg/mL (≈ 1.82 µM) | 16 µg/mL (≈ 29.1 µM) | 16 µg/mL (≈ 29.1 µM) | 2 µg/mL (≈ 3.63 µM) | 8 µg/mL (≈ 14.5 µM) | 4 µg/mL (≈ 7.26 µM) | 8 µg/mL (≈ 14.5 µM) | 8 µg/mL (≈ 14.5 µM) |  |  |  |  |  |  | 
CNC1C(O[C@H]2OC(CO)[C@@H](NCCN)[C@H](O)C2O)O[C@H]2CC(N)[C@@H](O[C@@H]3C(N)C[C@@H](N)C(O)[C@H]3O)OC2C1O (stereo partly shown) [Compound S1-g, 4″-N-(2-aminoethyl)-5-epiapramycin] | 2 µg/mL (≈ 3.43 µM) | 8 µg/mL (≈ 13.7 µM) | 4 µg/mL (≈ 6.87 µM) | 4 µg/mL (≈ 6.87 µM) | 4 µg/mL (≈ 6.87 µM) | 4 µg/mL (≈ 6.87 µM) | 1 µg/mL (≈ 1.72 µM) | 8 µg/mL (≈ 13.7 µM) | 16 µg/mL (≈ 27.5 µM) | 2 µg/mL (≈ 3.43 µM) | 8 µg/mL (≈ 13.7 µM) | 2 µg/mL (≈ 3.43 µM) | 8 µg/mL (≈ 13.7 µM) | 4 µg/mL (≈ 6.87 µM) |  |  |  |  |  |  | 
CN[C@@H]1[C@@H](O[C@H]2O[C@H](CO)[C@@H](NC)[C@H](O)[C@H]2O)O[C@H]2C[C@@H](N)[C@@H](O[C@H]3CC[C@H](N)C[C@@H]3N)O[C@@H]2[C@@H]1O [Compound T2-a, 5,6-dideoxy-4″-N-methylapramycin] |  |  |  |  |  |  |  |  |  |  |  |  |  |  | 1 µg/mL (≈ 1.92 µM) | 8 µg/mL (≈ 15.3 µM) | 4 µg/mL (≈ 7.67 µM) | 4 µg/mL (≈ 7.67 µM) | 4 µg/mL (≈ 7.67 µM) | 2 µg/mL (≈ 3.83 µM) | minimal inhibitory concentration (MIC) [7]: 0.5 µg/mL (≈ 0.959 µM); minimal inhibitory concentration (MIC) [8]: 4 µg/mL (≈ 7.67 µM); minimal inhibitory concentration (MIC) [9]: 8 µg/mL (≈ 15.3 µM); minimal inhibitory concentration (MIC) [10]: 1 µg/mL (≈ 1.92 µM); minimal inhibitory concentration (MIC) [11]: 4 µg/mL (≈ 7.67 µM); minimal inhibitory concentration (MIC) [12]: 1 µg/mL (≈ 1.92 µM); minimal inhibitory concentration (MIC) [13]: 4 µg/mL (≈ 7.67 µM); minimal inhibitory concentration (MIC) [14]: 4 µg/mL (≈ 7.67 µM)
